In patent US6620828B2, “Thiazole compounds and pharmaceutical compositions for inhibiting protein kinases and methods for their use” (Agouron Pharmaceuticals, Inc., priority 1999, dated 2003):

Target: T1, phosphorylated VEGF-R2Δ50 (FLVK-P) (Homo sapiens, UniProt P35968, DEL940-989/E990V)
T1 construct: VEGF-R2Δ50 contains residues 806-939 and 990-1171; made in house; host or cells: baculovirus/insect cells
Assay: VEGF-R2 coupled spectrophotometric (FLVK-P) assay
Type: biochemical
Conditions: 20 μM; combinatorial library compounds
How it was run: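 Baculovirus-expressed human VEGF-R2Δ50 (residues 806-939/990-1171, E990V) was autophosphorylated with 3 mM ATP, 40 mM MgCl2 for 2 h at 4° C. ADP formation was coupled via PK/LDH to NADH oxidation, read at 340 nm, with 5.1 mM poly(E4Y1), 1 mM ATP, 25 mM MgCl2, Hepes pH 7.5. Ki came from activity across compound concentrations.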

T1 sequence (P35968 with tags, fused parts or gaps DEL940-989/E990V limits assumed): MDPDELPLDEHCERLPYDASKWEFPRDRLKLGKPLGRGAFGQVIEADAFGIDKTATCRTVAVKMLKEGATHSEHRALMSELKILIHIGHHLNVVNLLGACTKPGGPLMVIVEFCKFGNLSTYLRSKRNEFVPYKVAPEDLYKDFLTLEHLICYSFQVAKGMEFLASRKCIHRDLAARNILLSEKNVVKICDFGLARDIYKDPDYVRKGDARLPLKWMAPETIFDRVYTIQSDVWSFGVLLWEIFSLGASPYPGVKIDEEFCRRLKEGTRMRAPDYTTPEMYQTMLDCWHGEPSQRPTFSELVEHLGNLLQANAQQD

Row | SMILES | VEGF % inhibition at 20 μM [%]
1 | Cc1c(-c2csc(-c3sc(Nc4ccc(S(N)(=O)=O)cc4)nc3N)n2)sc2ccc(Cl)cc12 [drawing 426] | 19

Same assay, conditions: read-out: VEGF % inhibition at 20 μM, 20 μM; combinatorial library compounds

Row | SMILES | inhibition at 20 µM [%]
2 | COc1ccccc1-c1csc(-c2sc(Nc3ccc(N(C)C)cc3)nc2N)n1 | 0
3 | CN(C)c1ccc(Nc2nc(N)c(-c3nc(-c4ccc5c(c4)C(C)(C)CCC5(C)C)cs3)s2)cc1 | 18
4 | Cc1c(C)c(C)c(-c2csc(-c3sc(Nc4ccc(N(C)C)cc4)nc3N)n2)c(C)c1C | 33
5 | CC(C)c1ccc(Nc2nc(N)c(-c3nc(-c4c(Cl)c(Cl)nc(Cl)c4Cl)cs3)s2)cc1 | 30
6 | CC(C)c1ccc(Nc2nc(N)c(-c3nc(-c4ccc5oc6ccccc6c5c4)cs3)s2)cc1 | 39
7 | N#Cc1ccc(-c2nc(-c3sc(Nc4ccc(S(N)(=O)=O)cc4)nc3N)cs2)cc1 | 13
8 | CCc1cc2c(cc1-c1csc(-c3sc(Nc4ccc(N(C)C)cc4)nc3N)n1)C(C)(C)CCC2(C)C | 17
9 | CN(C)c1ccc(Nc2nc(N)c(-c3nc(-c4c(Cl)c(Cl)nc(Cl)c4Cl)cs3)s2)cc1 | 35
10 | Cc1cc(-c2csc(-c3sc(Nc4ccc(C(C)C)cc4)nc3N)n2)ccc1Cl | -7
11 | COc1cc(OC)c(-c2csc(-c3sc(Nc4ccc(S(N)(=O)=O)cc4)nc3N)n2)c(O)c1Cl | 29
12 | CC(C)c1ccc(Nc2nc(N)c(-c3nc(-c4ccc5ccccc5c4)cs3)s2)cc1 | -2
13 | CCOC(=O)c1cc(-c2csc(-c3sc(Nc4ccc(N(C)C)cc4)nc3N)n2)on1 | 9
14 | Cc1cc(-c2csc(-c3sc(Nc4ccc(N(C)C)cc4)nc3N)n2)cc(C)c1O | 24
15 | COc1ccccc1-c1csc(-c2sc(Nc3ccc(S(N)(=O)=O)cc3)nc2N)n1 [drawing 394] | 21
16 | CN(C)c1ccc(Nc2nc(N)c(-c3nc(-c4ccc(Cl)c([N+](=O)[O-])c4)cs3)s2)cc1 | -2
17 | CN(C)c1ccc(Nc2nc(N)c(-c3nc(-c4cc(C(C)(C)C)c(O)c(C(C)(C)C)c4)cs3)s2)cc1 | 6
18 | COc1ccc2nc(-c3ccccc3)c(-c3csc(-c4sc(Nc5ccc(C(C)C)cc5)nc4N)n3)cc2c1 | 15

Target: T2, FL-CHK1 (Homo sapiens, UniProt O14757)
T2 construct: C-terminally His-tagged full-length human CHK1 (FL-CHK1); 6xHis (C); made in house; host or cells: baculovirus/insect cells
T2 sequence (O14757 1-476): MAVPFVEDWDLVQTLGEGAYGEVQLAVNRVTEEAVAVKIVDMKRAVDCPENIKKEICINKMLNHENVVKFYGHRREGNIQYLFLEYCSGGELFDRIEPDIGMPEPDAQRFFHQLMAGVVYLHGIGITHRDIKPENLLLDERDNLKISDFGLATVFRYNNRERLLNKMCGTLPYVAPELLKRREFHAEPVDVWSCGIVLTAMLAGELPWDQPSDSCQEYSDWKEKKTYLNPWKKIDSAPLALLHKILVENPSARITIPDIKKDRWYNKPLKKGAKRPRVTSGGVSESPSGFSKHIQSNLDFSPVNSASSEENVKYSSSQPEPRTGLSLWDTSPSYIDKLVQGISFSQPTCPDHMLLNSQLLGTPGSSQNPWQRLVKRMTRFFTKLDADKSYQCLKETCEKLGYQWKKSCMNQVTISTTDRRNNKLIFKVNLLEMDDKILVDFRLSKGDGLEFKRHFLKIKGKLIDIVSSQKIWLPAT
Assay: CHK1 assay
Type: biochemical
Conditions: 20 μM; combinatorial library compounds
How it was run: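 Full-length human CHK1 with C-terminal 6×His tag, made in baculovirus/insect cells, 10 nM, phosphorylating 0.125 mM Syntide-2 with 0.15 mM ATP in 50 mM Tris pH 7.5, 25 mM MgCl2, 400 mM NaCl. PK/LDH-coupled NADH oxidation read at 340 nm. Ki from initial rates over varied compound concentrations.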

Row | SMILES | inhibition at 20 µM [%] | CHK1 % Inhibition at 20 μM [%]
19 | COc1ccccc1-c1csc(-c2sc(Nc3ccc(N(C)C)cc3)nc2N)n1 | 14.8 | –
20 | CN(C)c1ccc(Nc2nc(N)c(-c3nc(-c4ccc5c(c4)C(C)(C)CCC5(C)C)cs3)s2)cc1 | 32.9 | –
21 | Cc1c(C)c(C)c(-c2csc(-c3sc(Nc4ccc(N(C)C)cc4)nc3N)n2)c(C)c1C | 37 | –
22 | CC(C)c1ccc(Nc2nc(N)c(-c3nc(-c4c(Cl)c(Cl)nc(Cl)c4Cl)cs3)s2)cc1 | 19.3 | –
23 | CC(C)c1ccc(Nc2nc(N)c(-c3nc(-c4ccc5oc6ccccc6c5c4)cs3)s2)cc1 | 18.9 | –
24 | Cc1c(-c2csc(-c3sc(Nc4ccc(S(N)(=O)=O)cc4)nc3N)n2)sc2ccc(Cl)cc12 [drawing 426] | – | 9.7
25 | N#Cc1ccc(-c2nc(-c3sc(Nc4ccc(S(N)(=O)=O)cc4)nc3N)cs2)cc1 | 3.7 | –
26 | CCc1cc2c(cc1-c1csc(-c3sc(Nc4ccc(N(C)C)cc4)nc3N)n1)C(C)(C)CCC2(C)C | 18.8 | –
27 | CN(C)c1ccc(Nc2nc(N)c(-c3nc(-c4c(Cl)c(Cl)nc(Cl)c4Cl)cs3)s2)cc1 | 41.4 | –
28 | Cc1cc(-c2csc(-c3sc(Nc4ccc(C(C)C)cc4)nc3N)n2)ccc1Cl | 9 | –
29 | COc1cc(OC)c(-c2csc(-c3sc(Nc4ccc(S(N)(=O)=O)cc4)nc3N)n2)c(O)c1Cl | 25.6 | –
30 | CC(C)c1ccc(Nc2nc(N)c(-c3nc(-c4ccc5ccccc5c4)cs3)s2)cc1 | 10.7 | –
31 | CCOC(=O)c1cc(-c2csc(-c3sc(Nc4ccc(N(C)C)cc4)nc3N)n2)on1 | -4.5 | –
32 | Cc1cc(-c2csc(-c3sc(Nc4ccc(N(C)C)cc4)nc3N)n2)cc(C)c1O | 27.2 | –
33 | COc1ccccc1-c1csc(-c2sc(Nc3ccc(S(N)(=O)=O)cc3)nc2N)n1 [drawing 394] | 18.7 | –
34 | CN(C)c1ccc(Nc2nc(N)c(-c3nc(-c4ccc(Cl)c([N+](=O)[O-])c4)cs3)s2)cc1 | 16 | –
35 | CN(C)c1ccc(Nc2nc(N)c(-c3nc(-c4cc(C(C)(C)C)c(O)c(C(C)(C)C)c4)cs3)s2)cc1 | 37.1 | –
36 | COc1ccc2nc(-c3ccccc3)c(-c3csc(-c4sc(Nc5ccc(C(C)C)cc5)nc4N)n3)cc2c1 | 14.1 | –

Target: CDK2/Cyclin A complex (Homo sapiens, UniProt P24941)
Assay: CDK2/Cyclin A assay
Type: biochemical
Conditions: 1.0 μM; combinatorial library compounds
How it was run: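 Radiometric assay: 150 nM CDK2/cyclin A (insect-cell CDK2, truncated cyclin A) phosphorylates His-tagged Rb fragment (residues 386-928) with 25 μM ATP plus [32P]ATP, pH 7.4 HEPES, 2% DMSO, 30 °C for 20 min. Filter-captured product counted by phosphorimager; apparent Ki from competitive or tight-binding inhibition fits.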

Row | SMILES | inhibition at 1 µM [%] | CDK2 % Inhibition at 1.0 μM [%]
37 | COc1ccccc1-c1csc(-c2sc(Nc3ccc(N(C)C)cc3)nc2N)n1 | -6.4 | –
38 | CN(C)c1ccc(Nc2nc(N)c(-c3nc(-c4ccc5c(c4)C(C)(C)CCC5(C)C)cs3)s2)cc1 | 3.1 | –
39 | Cc1c(C)c(C)c(-c2csc(-c3sc(Nc4ccc(N(C)C)cc4)nc3N)n2)c(C)c1C | 33.9 | –
40 | CC(C)c1ccc(Nc2nc(N)c(-c3nc(-c4c(Cl)c(Cl)nc(Cl)c4Cl)cs3)s2)cc1 | 12.5 | –
41 | CC(C)c1ccc(Nc2nc(N)c(-c3nc(-c4ccc5oc6ccccc6c5c4)cs3)s2)cc1 | -4.3 | –
42 | Cc1c(-c2csc(-c3sc(Nc4ccc(S(N)(=O)=O)cc4)nc3N)n2)sc2ccc(Cl)cc12 [drawing 426] | – | 56
43 | N#Cc1ccc(-c2nc(-c3sc(Nc4ccc(S(N)(=O)=O)cc4)nc3N)cs2)cc1 | 13.3 | –
44 | CCc1cc2c(cc1-c1csc(-c3sc(Nc4ccc(N(C)C)cc4)nc3N)n1)C(C)(C)CCC2(C)C | 20.5 | –
45 | CN(C)c1ccc(Nc2nc(N)c(-c3nc(-c4c(Cl)c(Cl)nc(Cl)c4Cl)cs3)s2)cc1 | 33.3 | –
46 | Cc1cc(-c2csc(-c3sc(Nc4ccc(C(C)C)cc4)nc3N)n2)ccc1Cl | 11.7 | –
47 | COc1cc(OC)c(-c2csc(-c3sc(Nc4ccc(S(N)(=O)=O)cc4)nc3N)n2)c(O)c1Cl | 69.5 | –
48 | CC(C)c1ccc(Nc2nc(N)c(-c3nc(-c4ccc5ccccc5c4)cs3)s2)cc1 | 17.2 | –
49 | CCOC(=O)c1cc(-c2csc(-c3sc(Nc4ccc(N(C)C)cc4)nc3N)n2)on1 | 13.4 | –
50 | Cc1cc(-c2csc(-c3sc(Nc4ccc(N(C)C)cc4)nc3N)n2)cc(C)c1O | 29.8 | –
51 | COc1ccccc1-c1csc(-c2sc(Nc3ccc(S(N)(=O)=O)cc3)nc2N)n1 [drawing 394] | 18.9 | –
52 | CN(C)c1ccc(Nc2nc(N)c(-c3nc(-c4ccc(Cl)c([N+](=O)[O-])c4)cs3)s2)cc1 | 4.1 | –
53 | CN(C)c1ccc(Nc2nc(N)c(-c3nc(-c4cc(C(C)(C)C)c(O)c(C(C)(C)C)c4)cs3)s2)cc1 | 18.3 | –
54 | COc1ccc2nc(-c3ccccc3)c(-c3csc(-c4sc(Nc5ccc(C(C)C)cc5)nc4N)n3)cc2c1 | 26 | –

Target: T3, CDK4/Cyclin D3 complex (Homo sapiens, UniProt P11802)
T3 construct: made in house; host or cells: insect cells co-infected with baculovirus vectors
T3 sequence (P11802 whole entry): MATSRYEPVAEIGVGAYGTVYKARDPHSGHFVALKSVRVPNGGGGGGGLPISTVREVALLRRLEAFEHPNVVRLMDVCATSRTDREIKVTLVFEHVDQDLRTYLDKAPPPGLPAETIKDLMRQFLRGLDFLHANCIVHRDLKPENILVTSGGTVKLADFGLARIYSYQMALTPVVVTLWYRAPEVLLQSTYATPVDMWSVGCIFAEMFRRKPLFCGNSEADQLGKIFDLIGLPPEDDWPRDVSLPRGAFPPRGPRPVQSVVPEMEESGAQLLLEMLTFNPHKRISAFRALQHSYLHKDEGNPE
T3 sequence (P30281 whole entry partner): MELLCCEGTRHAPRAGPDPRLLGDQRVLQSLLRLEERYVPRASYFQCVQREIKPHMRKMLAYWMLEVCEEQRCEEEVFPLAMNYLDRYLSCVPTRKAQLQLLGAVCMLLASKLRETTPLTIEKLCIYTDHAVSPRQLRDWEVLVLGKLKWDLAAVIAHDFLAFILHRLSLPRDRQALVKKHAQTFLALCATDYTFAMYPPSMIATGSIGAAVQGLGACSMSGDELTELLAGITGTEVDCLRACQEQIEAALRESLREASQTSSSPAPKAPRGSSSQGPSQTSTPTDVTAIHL
Assay: CDK4/Cyclin D assay
Type: biochemical
Conditions: 1.0 μM; combinatorial library compounds
How it was run: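 Insect-cell-expressed CDK4/cyclin D3 (50 nM) phosphorylating His-tagged Rb fragment (residues 386-928) with 25 μM [^32P]ATP in HEPES pH 7.4, MgCl2, 2% DMSO; 20 min at 30 °C, EDTA stop. Filter-captured 32P by phosphorimager; apparent Ki from competitive or tight-binding inhibition fits.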

Row | SMILES | inhibition at 1 µM [%] | CDK4 % Inhibition at 1.0 μM [%]
55 | COc1ccccc1-c1csc(-c2sc(Nc3ccc(N(C)C)cc3)nc2N)n1 | 8.7 | –
56 | CN(C)c1ccc(Nc2nc(N)c(-c3nc(-c4ccc5c(c4)C(C)(C)CCC5(C)C)cs3)s2)cc1 | 74.4 | –
57 | Cc1c(C)c(C)c(-c2csc(-c3sc(Nc4ccc(N(C)C)cc4)nc3N)n2)c(C)c1C | 62.7 | –
58 | CC(C)c1ccc(Nc2nc(N)c(-c3nc(-c4c(Cl)c(Cl)nc(Cl)c4Cl)cs3)s2)cc1 | 72.7 | –
59 | CC(C)c1ccc(Nc2nc(N)c(-c3nc(-c4ccc5oc6ccccc6c5c4)cs3)s2)cc1 | 75.5 | –
60 | Cc1c(-c2csc(-c3sc(Nc4ccc(S(N)(=O)=O)cc4)nc3N)n2)sc2ccc(Cl)cc12 [drawing 426] | – | 70.6
61 | N#Cc1ccc(-c2nc(-c3sc(Nc4ccc(S(N)(=O)=O)cc4)nc3N)cs2)cc1 | 16.3 | –
62 | CCc1cc2c(cc1-c1csc(-c3sc(Nc4ccc(N(C)C)cc4)nc3N)n1)C(C)(C)CCC2(C)C | 70.9 | –
63 | CN(C)c1ccc(Nc2nc(N)c(-c3nc(-c4c(Cl)c(Cl)nc(Cl)c4Cl)cs3)s2)cc1 | 64.4 | –
64 | Cc1cc(-c2csc(-c3sc(Nc4ccc(C(C)C)cc4)nc3N)n2)ccc1Cl | 9.1 | –
65 | COc1cc(OC)c(-c2csc(-c3sc(Nc4ccc(S(N)(=O)=O)cc4)nc3N)n2)c(O)c1Cl | 62.5 | –
66 | CC(C)c1ccc(Nc2nc(N)c(-c3nc(-c4ccc5ccccc5c4)cs3)s2)cc1 | 51.2 | –
67 | CCOC(=O)c1cc(-c2csc(-c3sc(Nc4ccc(N(C)C)cc4)nc3N)n2)on1 | 33.7 | –
68 | Cc1cc(-c2csc(-c3sc(Nc4ccc(N(C)C)cc4)nc3N)n2)cc(C)c1O | 52.4 | –
69 | COc1ccccc1-c1csc(-c2sc(Nc3ccc(S(N)(=O)=O)cc3)nc2N)n1 [drawing 394] | 16 | –
70 | CN(C)c1ccc(Nc2nc(N)c(-c3nc(-c4ccc(Cl)c([N+](=O)[O-])c4)cs3)s2)cc1 | 59.8 | –
71 | CN(C)c1ccc(Nc2nc(N)c(-c3nc(-c4cc(C(C)(C)C)c(O)c(C(C)(C)C)c4)cs3)s2)cc1 | 73.2 | –
72 | COc1ccc2nc(-c3ccccc3)c(-c3csc(-c4sc(Nc5ccc(C(C)C)cc5)nc4N)n3)cc2c1 | 85.1 | –
